Measured values published in ChEMBL document CHEMBL1147770, “Design, synthesis and structure-activity relationships of new phosphinate inhibitors of MurD” (Bioorg Med Chem Lett, 2006).

Experiments:
[1] = target: T1, UDP-N-acetylmuramoylalanine--D-glutamate ligase (Escherichia coli K-12) (UniProt P14900); test: Residual activity of MurD from Escherichia coli at 1 mM
T1 sequence (whole entry): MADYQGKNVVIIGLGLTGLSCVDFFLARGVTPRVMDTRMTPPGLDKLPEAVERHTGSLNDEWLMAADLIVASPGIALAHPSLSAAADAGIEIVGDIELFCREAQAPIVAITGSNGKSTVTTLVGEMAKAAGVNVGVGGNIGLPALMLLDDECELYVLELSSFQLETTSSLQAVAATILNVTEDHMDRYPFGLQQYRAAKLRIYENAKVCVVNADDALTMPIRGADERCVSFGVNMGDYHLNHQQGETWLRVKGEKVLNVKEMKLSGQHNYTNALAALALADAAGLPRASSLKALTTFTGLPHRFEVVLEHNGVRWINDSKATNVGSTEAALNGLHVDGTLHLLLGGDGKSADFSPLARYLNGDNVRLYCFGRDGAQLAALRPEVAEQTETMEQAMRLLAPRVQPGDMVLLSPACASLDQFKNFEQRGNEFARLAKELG

[2] = target: T2, UDP-N-acetylmuramoylalanine--D-glutamate ligase (Streptococcus pneumoniae serotype 4 (strain ATCC BAA-334 / TIGR4), UniProt Q97RU8); test: Inhibitory activity against MurD from Streptococcus pneumoniae
T2 sequence (Q97RU8 whole entry): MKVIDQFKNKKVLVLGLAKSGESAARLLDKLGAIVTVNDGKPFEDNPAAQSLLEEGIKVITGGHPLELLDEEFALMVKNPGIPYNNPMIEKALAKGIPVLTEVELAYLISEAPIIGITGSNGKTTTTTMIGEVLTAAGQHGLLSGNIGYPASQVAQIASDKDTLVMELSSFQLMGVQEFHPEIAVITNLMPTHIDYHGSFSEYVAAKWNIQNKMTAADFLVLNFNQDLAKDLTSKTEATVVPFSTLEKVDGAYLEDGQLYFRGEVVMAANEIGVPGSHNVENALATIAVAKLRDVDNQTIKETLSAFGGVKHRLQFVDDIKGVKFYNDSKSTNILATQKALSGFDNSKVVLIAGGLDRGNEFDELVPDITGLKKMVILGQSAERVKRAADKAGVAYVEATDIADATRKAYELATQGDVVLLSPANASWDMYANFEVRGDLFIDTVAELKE

[3] = target: T3, UDP-N-acetylmuramoylalanine--D-glutamate ligase (Escherichia coli K-12, UniProt P14900); test: Inhibitory activity against MurD from Escherichia coli
T3 sequence (P14900 whole entry): T1 sequence (whole entry)

Row | Activity [1] [%] | IC50 [2] [µM] | IC50 [3] [µM] | SMILES
1 | 22 |  |  | CC(NS(=O)(=O)Cc1cccc([N+](=O)[O-])c1)P(=O)(O)CC(CCC(=O)O)C(=O)O (configuration not stated)
2 | 83 |  |  | CCC(C)C(NC(=O)OCc1ccccc1)P(=O)(O)CC(CCC(=O)O)C(=O)O (configuration not stated)
3 | 23 |  |  | CC(NC(=O)/C=C/c1cccc(O)c1)P(=O)(O)CC(CCC(=O)O)C(=O)O (configuration not stated)
4 | 41 | 100 |  | CC(NC(=O)OCc1ccccc1)P(=O)(O)CC(CCC(=O)O)C(=O)O (configuration not stated)
5 | 65 |  |  | CC(C)CC(NC(=O)OCc1ccccc1)P(=O)(O)CC(CCC(=O)O)C(=O)O (configuration not stated)
6 |  |  | 95 | CC(NC(=O)/C=C/c1ccc2c(c1)OCO2)P(=O)(O)CC(CCC(=O)O)C(=O)O (configuration not stated)
7 | 100 |  |  | CC(NC(=O)[C@H](C)NS(=O)(=O)Cc1ccc([N+](=O)[O-])cc1)P(=O)(O)CCC(=O)O (some centres not stated)
8 | 37 |  |  | CC(NS(=O)(=O)Cc1ccc(F)cc1Cl)P(=O)(O)CC(CCC(=O)O)C(=O)O (configuration not stated)
9 | 28 |  | 432 | CC(NC(=O)/C=C/c1ccccc1)P(=O)(O)CC(CCC(=O)O)C(=O)O (configuration not stated)
10 | 54 |  |  | CC(NS(=O)(=O)c1ccccc1)P(=O)(O)CC(CCC(=O)O)C(=O)O (configuration not stated)
11 | 52 |  |  | CC(NS(=O)(=O)c1cccc([N+](=O)[O-])c1)P(=O)(O)CC(CCC(=O)O)C(=O)O (configuration not stated)
12 | 40 |  |  | CC(NS(=O)(=O)Cc1ccccc1)P(=O)(O)CC(CCC(=O)O)C(=O)O (configuration not stated)
13 | 44 |  |  | CC(NC(=O)[C@@H](C)NC(=O)Cc1ccc2c(c1)OCO2)P(=O)(O)CC(CCC(=O)O)C(=O)O (some centres not stated)
14 | 30 |  |  | CC(NS(=O)(=O)Cc1ccccc1[N+](=O)[O-])P(=O)(O)CC(CCC(=O)O)C(=O)O (configuration not stated)
15 | 49 |  |  | CC(NS(=O)(=O)Cc1cccc(C(F)(F)F)c1)P(=O)(O)CC(CCC(=O)O)C(=O)O (configuration not stated)
16 | 47 |  |  | CC(NS(=O)(=O)Cc1ccc([N+](=O)[O-])cc1)P(=O)(O)CC(CCC(=O)O)C(=O)O (configuration not stated)
17 | 55 |  |  | CC(NS(=O)(=O)c1ccc2ccccc2c1)P(=O)(O)CC(CCC(=O)O)C(=O)O (configuration not stated)
18 | 36 |  |  | CC(NC(=O)Cc1ccc2c(c1)OCO2)P(=O)(O)CC(CCC(=O)O)C(=O)O (configuration not stated)
19 | 19 |  |  | CC(NC(=O)[C@@H](C)NS(=O)(=O)Cc1cccc([N+](=O)[O-])c1)P(=O)(O)CC(CCC(=O)O)C(=O)O (some centres not stated)
20 | 50 |  |  | CC(NS(=O)(=O)Cc1ccc(C(F)(F)F)cc1)P(=O)(O)CC(CCC(=O)O)C(=O)O (configuration not stated)
21 | 91 |  |  | CC(NC(=O)/C=C/c1ccc2c(c1)OCO2)P(=O)(O)CCC(=O)O (configuration not stated)
22 | 8 |  | 78 | CC(NC(=O)[C@@H](C)NS(=O)(=O)Cc1ccc([N+](=O)[O-])cc1)P(=O)(O)CC(CCC(=O)O)C(=O)O (some centres not stated)
23 | 92 |  |  | CC(NC(=O)OCc1ccccc1)P(=O)(O)CCC(=O)O (configuration not stated)
24 | 66 |  |  | CC(C)C(NC(=O)OCc1ccccc1)P(=O)(O)CC(CCC(=O)O)C(=O)O (configuration not stated)
